Laboratory results published in publication PMC6934184, “Selective DNA-PKcs inhibition extends the therapeutic index of localized radiotherapy and chemotherapy” (The Journal of Clinical Investigation, 2019).

Molecular target: T1, PRKACG (PRKAC gamma) (Homo sapiens, UniProt P22612)
T1 construct: purchased Thermo Fisher Scientific (Life Technologies) SelectScreen
Assay: SelectScreen LanthaScreen
Assay type: binding
Conditions: read-out: % displacement
Outline: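 Percent values come from Thermo SelectScreen profiling of NU5455, combining activity and binding assays. CSF1R was run in Z'LYTE format at Km app ATP, and CAMK1 in Adapta format with ATP listed at 10.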

T1 sequence (P22612 whole entry): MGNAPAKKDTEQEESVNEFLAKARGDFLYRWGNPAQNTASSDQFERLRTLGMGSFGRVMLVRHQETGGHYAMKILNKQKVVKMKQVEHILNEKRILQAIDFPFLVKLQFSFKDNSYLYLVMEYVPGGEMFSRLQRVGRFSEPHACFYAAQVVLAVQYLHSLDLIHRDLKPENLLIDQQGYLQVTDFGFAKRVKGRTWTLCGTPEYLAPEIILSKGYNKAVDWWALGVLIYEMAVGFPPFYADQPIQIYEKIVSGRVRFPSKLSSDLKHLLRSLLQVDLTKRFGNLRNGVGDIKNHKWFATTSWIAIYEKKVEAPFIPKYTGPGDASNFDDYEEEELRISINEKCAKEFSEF

CN(C(=O)CN1CCOCC1)c1ccc2sc3c(-c4cccc5c(=O)cc(N6CC7CCC(C6)O7)oc45)cccc3c2c1 [NU5455]
inhibition at 1 µM: -0.2%
